Results taken from patent publication US20230365558A1, “TETRAHYDROISOQUINOLINE DERIVATIVE AND USE THEREOF” (MEDSHINE DISCOVERY INC., priority 2020, published 2023).
Where two headings read alike, the source gives them in different places.

Assays:
[1] = target: PRMT5 enzyme (Homo sapiens (Human), UniProt O14744); test: PRMT5 enzyme inhibitory activity assay (LANCE Ultra TR-FRET); format: biochemical
Experimental: Experimental objective: To test the inhibitory effect of compounds on PRMT5 enzyme activity
Experimental materials: PRMT5 enzyme
The plate was incubated at 25° C. for 30 min, then added with substrate, and reacted at 25° C. for 90 min. After 90 min, the detection reagent was added to the 384-well plate using PerkinElmer LANCE Ultra TR-FRET standard method to combine with the enzyme-substrate reaction product. […] Raw data were used to calculate the inhibition rate of the test compounds using the following equation: […]
(§1) The inhibition rates were imported into Excel separately to calculate the inhibition rates of compounds at different concentrations, and then XLfit software was used to plot inhibition curves and calculate relevant parameters, including minimum inhibition rate, maximum inhibition rate and IC50.

[2] = Pharmacokinetic evaluation in CD-1 mice; details: CD-1 mice
Experimental: Experimental objective: To study the pharmacokinetic parameters of the compounds in CD-1 mice
Animal experimental design: Male CD-1 mice (28.08 to 29.01 g, 6 to 7 weeks old), purchased from Shanghai Family Planning Research Institute, n=2/group, 4 mice in total; blood collection time points (h): 0.083 (intravenous injection only), 0.25 (intragastric administration only), 0.5, 1, 2, 4, 8, 10 and 24; compound dose by tail vein injection: 1 mg/kg; single dose by intragastric administration: 5 mg/kg; intravenous and intragastric administration vehicles: 20% N,N-dimethylacetamide aqueous solution, 20% hydroxypropyl-β-cyclodextrin aqueous solution, 5% DMSO/50% PEG400/45% water for injection or 10% Solutol/30% PEG400/60% water for injection. All animals had free access to water during the experiment, fasted overnight before administration, and resumed food supply 4 hours after administration. The entire animal experiment complied with the Institutional Animal Care and Use Committee (IACUC) animal welfare.
Sample collection and storage: After administration, approximately 0.03 mL of blood was collected from the saphenous vein of the mouse at each time point into a pre-frozen commercial EDTA-K2 tube, and placed on wet ice until centrifugation. Blood samples were centrifuged at 4° C., 3,200 g for 10 min. Plasma was collected separately, transferred to a pre-labeled 96-well plate, fast frozen on dry ice, and stored at −70±10° C. until LC-MS/MS analysis.
Pre-treatment of plasma samples: 3 μL of unknown, standard curve, QC, diluted QC and single and double blank samples were taken and placed in 1.5 mL tubes, and 60 μL of internal standard solution (internal standard: Labetalol 100 ng/mL acetonitrile solution, double blank with the same volume of pure acetonitrile) was added. The samples were vortexed for at least 15 seconds, and centrifuged at 4° C., 12,000 g for 15 min. 50 μL of the supernatant was taken and placed on a clean 96-well plate, and 200 μL of 70% acetonitrile was added. The plate was vortex at 800 rpm for 10 min, and centrifuged at 4° C., 3,220 g for 5 min. 2.0 μL of the supernatant was taken for LC-MS/MS analysis. 10-fold sample dilution procedure: 2 μL of the sample was added to 18 μL of blank matrix; 2-fold sample dilution procedure: 2 μL of the sample was added to 2 μL of blank matrix. Plasma was processed in the same manner as undiluted samples. The linear range was 4.00 to 6000 nM. Plasma concentrations would be analyzed with Triple Quad 6500 Plus, and pharmacokinetic parameters would be calculated with Phoenix WinNonlin 6.3.

[3] = system: human mantle cell lymphoma Z-138 cells; details: Z-138 xenograft; for T/C (%) (Day 21) / TGI (%) (Day 21): 80 mg/kg PO BID × 21, Day 21; for RTV (Day 21) / Tumor volume (Day 21): 80 mg/kg PO BID × 21, Day 21, Mean ± SEM; for Tumor volume (Day 21) / Tumor volume (Day 0): n = 6; for Tumor volume (Day 0): Day 0 (at grouping), Mean ± SEM
[4] = system: MDA-MB-468 human breast cancer cells; test: Anti-proliferative activity on MDA-MB-468 cells (CellTiter-Glo, 7 days); format: cell-based; details: read-out: IC50 (nM), in vitro anti-proliferative activity on MDA-MB-468 tumor cells
Experimental: CellTiter-Glo (chemiluminescent cell viability detection reagent, purchased from Promega).
MDA-MB-468 cells were planted in a white 384-well plate with 40 μL of cell suspension per well, which contained 1000 MDA-MB-468 cells. The cell plate was cultured in a CO2 incubator overnight. […] 78 μL of culture medium was added to a middle plate, and then 2 μL of gradient diluted compound per well was transferred to the middle plate according to the corresponding position. After being thoroughly mixed, 10 μL per well was transferred to the cell plate. […] The cell plate was cultured in a CO2 incubator for 7 days. Another cell plate was prepared, and the signal value was read on the day of administration as the maximum value (Max value in the equation below) to participate in data analysis. 10 μL of chemiluminescent cell viability detection reagent per well was added to the cell plate, and the plate was incubated at room temperature for 10 min to stabilize the luminescent signal. A multi-label analyzer was used for reading. After the incubation of the cell plate with the compound was completed, 10 μL of chemiluminescent cell viability detection reagent per well was added to the cell plate, and the plate was incubated at room temperature for 10 min to stabilize the luminescent signal. A multi-label analyzer was used for reading.

[5] = system: Z-138 non-Hodgkin's lymphoma cells; test: In vitro anti-proliferation assay of Z-138 cells (CellTiter-Glo, 6 days); format: cell-based, human; details: read-out: IC50 (nM), in vitro anti-proliferative activity on Z-138 tumor cells
Experimental: The plate was incubated at 37° C., CO2 and 100% relative humidity for 6 days. Samples were processed using Promega CellTiter-Glo Luminescent Cell Viability Assay Kit (Promega-G7571) standard method, and the luminescent signal was detected on a TECAN Spark®10M plate reader. Raw data were used to calculate the inhibition rate of the test compounds using the following equation: […]
as §1

[6] = system: human breast cancer MDA-MB-468 cells; test: Subcutaneous xenograft tumor BALB/c mouse model of human breast cancer MDA-MB-468 cells; format: in vivo; details: MDA-MB-468 xenograft
Experimental: Experimental materials: 6 to 8 weeks old Balb/c female mice
Routine digestion with trypsin-EDTA was performed twice a week for passaging.
Group administration was started when the average tumor volume reached 130 mm^3.

[7] = Hygroscopicity by dynamic vapor sorption (DVS); format: physicochemical; details: 25° C./80% RH
Experimental: (3) Dynamic Vapor Sorption (DVS) Method
Detailed DVS instrument information and parameters are shown in Table 5, and the classification of hygroscopicity evaluation is shown in Table 6:
Instrument: SMS DVS intrinsic Dynamic Vapor Sorption. The crystal form A of compound 46a (about 10 mg) was taken and placed in a DVS sample tray for testing.

[8] = injection administration (1 mg/kg)
[9] = 100 mg/kg PO BID × 4 W, Day 28, Mean ± SEM

Chain of PRMT5 enzyme (O14744 whole entry): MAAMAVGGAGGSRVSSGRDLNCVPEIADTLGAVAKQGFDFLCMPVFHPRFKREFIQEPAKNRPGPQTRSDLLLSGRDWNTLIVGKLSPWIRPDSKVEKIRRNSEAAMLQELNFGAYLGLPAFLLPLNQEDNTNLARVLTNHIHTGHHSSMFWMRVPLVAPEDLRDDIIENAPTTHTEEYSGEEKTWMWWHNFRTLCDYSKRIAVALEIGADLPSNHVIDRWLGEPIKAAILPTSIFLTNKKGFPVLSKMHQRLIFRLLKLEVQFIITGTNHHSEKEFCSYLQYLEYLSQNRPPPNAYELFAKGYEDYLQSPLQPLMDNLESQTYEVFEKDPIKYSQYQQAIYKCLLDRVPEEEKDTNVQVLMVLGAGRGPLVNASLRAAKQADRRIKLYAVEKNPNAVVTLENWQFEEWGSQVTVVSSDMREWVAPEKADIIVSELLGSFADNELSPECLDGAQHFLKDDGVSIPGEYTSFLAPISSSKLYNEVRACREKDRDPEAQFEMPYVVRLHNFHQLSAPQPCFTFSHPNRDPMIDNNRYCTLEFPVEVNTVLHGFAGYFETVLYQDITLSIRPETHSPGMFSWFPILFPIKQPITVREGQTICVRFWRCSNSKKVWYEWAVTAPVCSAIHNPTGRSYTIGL
Chain of PRMT5 enzyme (Q9BQA1 whole entry partner): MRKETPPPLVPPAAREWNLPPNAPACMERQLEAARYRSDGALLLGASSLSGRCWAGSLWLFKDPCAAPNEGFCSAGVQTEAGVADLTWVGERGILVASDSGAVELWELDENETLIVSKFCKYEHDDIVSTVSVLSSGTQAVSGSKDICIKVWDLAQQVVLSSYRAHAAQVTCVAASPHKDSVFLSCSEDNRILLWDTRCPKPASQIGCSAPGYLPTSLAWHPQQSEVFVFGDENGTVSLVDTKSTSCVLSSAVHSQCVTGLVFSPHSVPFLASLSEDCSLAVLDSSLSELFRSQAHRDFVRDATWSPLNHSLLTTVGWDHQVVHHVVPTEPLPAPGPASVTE

For `O=C(NC[C@H](O)CN1CCc2ccccc2C1)c1cnc2c(c1)NC(=O)C1(CC1)C2` [Compound 39], which IC50 [1] is on record?
The IC50 was 34 nM.

What about the “Clearance rate CL” value [2, 8] of the same compound?
The value was 33.6 mL/min/kg.

What about the “Concentration integral AUC” value [2, 8] of the same compound?
The value was 1.214 µM·h.

And the “Half-life T1/2” value [2, 8]?
The value was 33 min.

What about the “Bioavailability F” value ([2]; oral administration (5 mg/kg)) of the same compound?
Its value is 20.0%.

And the “Concentration integral AUC” value ([2]; oral administration (5 mg/kg))?
Its value is 1.208 µM·h.

What about the “T/C (%) (Day 21)” value [3] of the same compound?
Its value is 12.1%.

And the “TGI (%) (Day 21)” value [3]?
The value was 94.8%.

What about the “RTV (Day 21)” value [3] of the same compound?
The value was 1.66 + 0.42.

And the “Tumor volume (Day 21)” value [3]?
Its value is 179 + 42 mm^3.

What about the “Tumor volume (Day 0)” value [3] of the same compound?
The value was 108 ± 7 mm^3.

What about the IC50 [4] of the same compound?
The IC50 was 12 nM.

And the IC50 [5]?
Its IC50 is 12 nM.

For `C[C@H](NC(=O)c1cnc2c(c1)NC(=O)C1(CC1)O2)[C@H](O)CN1CCc2ccccc2C1` [Compound 46a], which IC50 [1] is on record?
The IC50 was 58 nM.

What about the “T/C (%) (Day 21)” value [3] of the same compound?
The value was 1.7%.

And the “TGI (%) (Day 21)” value [3]?
The value was 105.8%.

What about the “RTV (Day 21)” value [3] of the same compound?
Its value is 0.24 + 0.11.

And the “Tumor volume (Day 21)” value [3]?
Its value is 27 + 13 mm^3.

And the “Tumor volume (Day 0)” value [3]?
The value was 107 ± 8 mm^3.

What about the IC50 ([4]; Homo sapiens, 168 h) of the same compound?
The IC50 was 5 nM.

What about the IC50 ([5]; Homo sapiens, Z-138, 144 h) of the same compound?
Its IC50 is 11 nM.

And the “T/C (%)” value ([6]; 100 mg/kg PO BID × 4 W, Day 28)?
The value was 33.29%.

And the “TGI (%)” value ([6]; 100 mg/kg PO BID × 4 W, Day 28)?
Its value is 107.01%.

What about the “RTV (Day 28)” value [6, 9] of the same compound?
The value was 0.88 ± 0.06.

What about the “Tumor volume (Day 28)” value [6, 9] of the same compound?
Its value is 115 ± 13.8 mm^3.

And the “Tumor volume (Day 0)” value ([6]; Day 0 (at grouping), Mean ± SEM)?
The value was 130 ± 10.5 mm^3.

With `C[C@H](NC(=O)c1cnc2c(c1)NC(=O)C1(CC1)O2)[C@H](O)CN1CCc2ccccc2C1` [crystal form A of compound 46a] as the compound, how does the Hygroscopicity classification [7] read?
Its Hygroscopicity classification is “slightly hygroscopic”.

What about the “moisture absorption weight gain ΔW %” value [7] of the same compound?
The value was 0.8%.
